Columns and labels:
Assay in all cases: relative viability (nuclei count vs DMSO), 5 days (fraction); higher = more cells survive
Tozasertib + Olaparib = compound: Cc1cc(Nc2cc(N3CCN(C)CC3)nc(Sc3ccc(NC(=O)C4CC4)cc3)n2)n[nH]1 [Tozasertib] + O=C(c1cc(Cc2n[nH]c(=O)c3ccccc23)ccc1F)N1CCN(C(=O)C2CC2)CC1 [Olaparib] (partner 8 µM)
Procedure, shortened: (§1)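 A single step with final 0.05% Triton X-100, 1% formaldehyde and 1 ug/ml Hoechst fixed the cells and stained nuclei 5 days after treatment. Lung cancer cell lines in 1536-well plates had been treated by pin tool the day after seeding with one drug alone or a fixed anchor-drug dose plus five library-drug doses (not always all listed) in √10 steps, and nuclei were counted on 4× images. Relative viability is the ratio of nuclei in treated wells to nuclei in vehicle wells, taken as the median of duplicate plates.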

Tozasertib + Phenformin = compound: Cc1cc(Nc2cc(N3CCN(C)CC3)nc(Sc3ccc(NC(=O)C4CC4)cc3)n2)n[nH]1 [Tozasertib] + N=C(N)NC(=N)NCCc1ccccc1 [Phenformin] (partner 250 µM)
Procedure, shortened: as §1

Tozasertib + Decitabine = compound: Cc1cc(Nc2cc(N3CCN(C)CC3)nc(Sc3ccc(NC(=O)C4CC4)cc3)n2)n[nH]1 [Tozasertib] + Nc1ncn([C@H]2C[C@H](O)[C@@H](CO)O2)c(=O)n1 [Decitabine] (partner 2 µM)
Procedure, shortened: as §1

Tozasertib + Luminespib = compound: Cc1cc(Nc2cc(N3CCN(C)CC3)nc(Sc3ccc(NC(=O)C4CC4)cc3)n2)n[nH]1 [Tozasertib] + CCNC(=O)c1noc(-c2cc(C(C)C)c(O)cc2O)c1-c1ccc(CN2CCOCC2)cc1 [Luminespib] (partner 0.01 µM)
Procedure, shortened: as §1

Tozasertib + Dasatinib = compound: Cc1cc(Nc2cc(N3CCN(C)CC3)nc(Sc3ccc(NC(=O)C4CC4)cc3)n2)n[nH]1 [Tozasertib] + Cc1nc(Nc2ncc(C(=O)Nc3c(C)cccc3Cl)s2)cc(N2CCN(CCO)CC2)n1 [Dasatinib] (partner 0.075 µM)
Procedure, shortened: as §1

Cell Line | relative viability (Tozasertib + Olaparib; first compound 0.004 µM) | relative viability (Tozasertib + Olaparib; first compound 0.01265 µM) | relative viability (Tozasertib + Olaparib; first compound 0.04 µM) | relative viability (Tozasertib + Olaparib; first compound 0.1265 µM) | relative viability (Tozasertib + Phenformin; first compound 0.004 µM) | relative viability (Tozasertib + Phenformin; first compound 0.01265 µM) | relative viability (Tozasertib + Phenformin; first compound 0.04 µM) | relative viability (Tozasertib + Phenformin; first compound 0.1265 µM) | relative viability (Tozasertib + Decitabine; first compound 0.004 µM) | relative viability (Tozasertib + Decitabine; first compound 0.01265 µM) | relative viability (Tozasertib + Decitabine; first compound 0.04 µM) | relative viability (Tozasertib + Decitabine; first compound 0.1265 µM) | relative viability (Tozasertib + Luminespib; first compound 0.004 µM) | relative viability (Tozasertib + Luminespib; first compound 0.01265 µM) | relative viability (Tozasertib + Luminespib; first compound 0.04 µM) | relative viability (Tozasertib + Luminespib; first compound 0.1265 µM) | relative viability (Tozasertib + Dasatinib; first compound 0.004 µM) | relative viability (Tozasertib + Dasatinib; first compound 0.01265 µM) | relative viability (Tozasertib + Dasatinib; first compound 0.04 µM) | relative viability (Tozasertib + Dasatinib; first compound 0.1265 µM)
LK-2 | 0.753 | 0.715 | 0.77 | 0.326 | 0.37 | 0.493 | 0.412 | 0.212 | 0.428 | 0.291 | 0.363 | 0.141 | 0.204 | 0.195 | 0.166 | 0.172 | 0.262 | 0.39 | 0.285 | 0.23
NCI-H2347 | 0.528 | 0.616 | 0.697 | 0.582 | 0.45 | – | 0.433 | 0.377 | 0.567 | 0.365 | 0.627 | 0.74 | 0.326 | – | 0.39 | 0.346 | 0.344 | – | 0.262 | 0.281
COR-L23 | 0.375 | 0.378 | 0.3 | 0.299 | 0.44 | 0.425 | 0.407 | 0.176 | 0.42 | 0.384 | 0.439 | 0.247 | 0.836 | 0.619 | 0.618 | 0.637 | 0.521 | 0.547 | 0.479 | 0.245
NCI-H838 | 0.814 | 0.752 | 0.815 | 0.386 | 0.702 | 0.514 | 0.606 | 0.177 | 0.464 | 0.458 | 0.453 | 0.253 | 0.292 | 0.304 | 0.344 | 0.295 | 0.304 | 0.307 | 0.225 | 0.256
LU99A | 0.251 | 0.212 | 0.26 | 0.251 | 0.903 | 0.819 | 0.773 | 0.646 | 0.968 | 0.859 | 0.785 | 0.504 | 0.225 | 0.249 | 0.27 | 0.218 | 0.751 | 0.513 | 0.547 | 0.373
SK-LU-1 | 0.466 | 0.455 | 0.432 | 0.518 | 0.55 | 0.569 | 0.578 | 0.324 | 0.653 | 0.678 | – | 0.649 | 0.242 | 0.211 | 0.197 | 0.191 | 0.183 | 0.191 | 0.188 | 0.146
NCI-H2405 | 0.913 | – | 0.691 | – | 0.392 | 0.402 | 0.424 | 0.408 | 0.721 | 0.699 | 0.715 | 0.683 | 0.673 | 0.67 | 0.58 | 0.712 | 0.251 | 0.124 | 0.19 | 0.197
NCI-H2009 | 0.739 | 0.69 | 0.692 | 0.698 | 0.5 | 0.455 | 0.476 | 0.477 | 0.401 | 0.352 | 0.416 | 0.359 | 1.03 | 0.972 | 1.06 | 1.07 | 0.307 | 0.292 | 0.266 | 0.213
